Source: article PMC10672332, “Lecanicilliums A–F, Thiodiketopiperazine-Class Alkaloids from a Mangrove Sediment-Derived Fungus Lecanicillium kalimantanense” (Marine Drugs, 2023)
Values after ≈ are worked out from the molar mass of the structure shown. Where two headings read alike, the source gives them in different places.

Experiments:
Micrococcus luteus [1] = system: Micrococcus luteus; design: method as in PMID 25574740; details: cited from earlier work
[2] = Cytotoxicity, CCK-8 method; assay type: cell-based; details: human
Procedure: (§1) Cytotoxic activity was evaluated using the human lung adenocarcinoma cell line H1975 and human hepatocellular carcinoma cell line HepG-2, using the CCK-8 method as described in our previous study. Briefly, each of the test compounds was dissolved in DMSO and further diluted to give final concentrations of 80, 40, 20, 10, 5, 2.5, and 1.25 μM, respectively. H1975 cells or HepG-2 cells (5 × 10^3 […]) were seeded in 96-well plates and treated with compounds at the indicated concentration for 24 hours and then 10 μL CCK-8 reagent was added to each well. The plates were incubated at 37 °C for another 4 hours. Finally, the optical density was measured at a wavelength of 450 nm with a Bio-Rad microplate reader. Dose–response curves were generated, and the IC50 values were calculated from the linear portion of log dose–response curves.

brine shrimps = experiment: Brine shrimp lethality bioassay; assay type: in vivo; details: Table 3
Source text: The methods were the same as those used in our previous studies.

[3] = system: Streptococcus agalactiae ATCC 13813; experiment: Antibacterial assay, micro broth dilution; assay type: cell-based; details: read-out: Antibacterial Activity (MIC) S. agalactiae
Procedure: (§2) The micro broth dilution method was used to evaluate the antibacterial activities of compounds 1–19 against the growth of eight common pathogens: Bacillus subtilis BS01, Micrococcus luteus, Escherichia coli ATCC 25922, Staphylococcus aureus ATCC 6538, S. aureus MRSA, Streptococcus agalactiae ATCC 13813, S. iniae, and Pseudomonas aeruginosa ATCC 9027 in 96-well polystyrene plates. Vancomycin and ciprofloxacin were used as positive controls. Briefly, wells containing 100 μL bacteria dilutions (OD600 = 0.01) in Luria–Bertani (LB) medium were supplemented with different concentrations of 1–19 (80, 40, 20, 10, 5, 2.5, 1.25, and 0.625 μg/mL), vancomycin, and ciprofloxacin (40, 20, 10, 5, 2.5, 1.25, 0.625, and 0.3125 μg/mL), respectively. The MICs were determined after 24 hours’ incubation at 37 °C with the tested compounds.

[4] = system: Escherichia coli ATCC 25922; experiment: Antibacterial assay, micro broth dilution; assay type: cell-based; details: read-out: Antibacterial Activity (MIC) E. coli
Procedure: as §2

Micrococcus luteus [5] = experiment: Antibacterial assay, micro broth dilution; assay type: cell-based; details: read-out: Antibacterial Activity (MIC) M. luteus
Procedure: as §2

Bacillus subtilis BS01 = experiment: Antibacterial assay, micro broth dilution; assay type: cell-based; details: read-out: Antibacterial Activity (MIC) B. subtilis
Procedure: as §2

[6] = system: Staphylococcus aureus ATCC 6538; experiment: Antibacterial assay, micro broth dilution; assay type: cell-based; details: read-out: Antibacterial Activity (MIC) S. aureus
Procedure: as §2

S. aureus MRSA = experiment: Antibacterial assay, micro broth dilution; assay type: cell-based; details: Staphylococcus aureus, read-out: Antibacterial Activity (MIC) MRSA
Procedure: as §2

[7] = system: Pseudomonas aeruginosa ATCC 9027; experiment: Antibacterial assay, micro broth dilution; assay type: cell-based; details: read-out: Antibacterial Activity (MIC) P. aeruginosa
Procedure: as §2

S. iniae = experiment: Antibacterial assay, micro broth dilution; assay type: cell-based; details: Streptococcus iniae, read-out: Antibacterial Activity (MIC) S. iniae
Procedure: as §2

[8] = Antibacterial assays, summary in text over several pathogens; assay type: cell-based; details: read-out: MIC values against four pathogens
Procedure: as §2

[9] = Cytotoxicity, CCK-8 method; assay type: cell-based; details: human; remark: listed apart in the source
Procedure: as §1

[10] = system: human ovarian cancer cells; details: read-out: IC50 against human ovarian cancer cells; cited from earlier work
Staphylococcus aureus = details: cited from earlier work
[11] = ATCC13813, micro broth dilution, LB medium, 24 hours at 37 °C
[12] = ATCC25922, micro broth dilution, LB medium, 24 hours at 37 °C
[13] = micro broth dilution, LB medium, 24 hours at 37 °C
[14] = BS01, micro broth dilution, LB medium, 24 hours at 37 °C
[15] = ATCC6538, micro broth dilution, LB medium, 24 hours at 37 °C
[16] = ATCC9027, micro broth dilution, LB medium, 24 hours at 37 °C

SMILES | IC50 at 24 h [2] [µM] | Toxicity (TC50) Brine Shrimp (brine shrimps) [µg/mL] | MIC [3, 11] [µg/mL] | MIC [4, 12] [µg/mL] | MIC (Micrococcus luteus [5]; [13]) [µg/mL] | MIC (Bacillus subtilis BS01; [14]) [µg/mL] | MIC [6, 15] [µg/mL] | MIC (S. aureus MRSA; [13]) [µg/mL] | MIC [7, 16] [µg/mL] | MIC (S. iniae; [13]) [µg/mL] | IC50 at 24 h [9] [µM] | also measured
O=C(N[C@H](CO)[C@H](O)c1ccc([N+](=O)[O-])cc1)C(Cl)Cl [chloromycetin] | – | – | – | – | – | – | – | – | – | – | – | MIC against Micrococcus luteus (Micrococcus luteus [1]): 2.0 µg/mL (≈ 6.19 µM)
CSS[C@@]12CC3=COC=C[C@H](OC(C)=O)[C@H]3N1C(=O)[C@]1(SC)CC3=COC=C[C@H](OC(C)=O)[C@H]3N1C2=O [Compound 5, Lecanicillium E] | 16.3 | 40 | 25 (≈ 44.1 µM) | 80 (≈ 141 µM) | 40 (≈ 70.6 µM) | 10 (≈ 17.6 µM) | > 80 | > 80 | > 80 | 15 (≈ 26.5 µM) | > 80 | MIC [8]: 10 to 40 µg/mL (≈ 17.6 to 70.6 µM)
CSC12CC3=COC=CC(OC(C)=O)C3N1C(=O)C1(SC)CC3(O)C=CC(=O)C(OC(C)=O)C3N1C2=O (stereo not drawn) [Compound 4, Lecanicillium D] | 71.5 | 80 | > 80 | > 80 | > 80 | 50 (≈ 90.8 µM) | > 80 | > 80 | > 80 | 40 (≈ 72.6 µM) | > 80 | –
CS[C@@]12CC3=CC=C[C@H](OC(C)=O)[C@H]3N1C(=O)[C@]1(SC)CC3=CC=C[C@H](OC(C)=O)[C@H]3N1C2=O [Compound 15, haematocin] | – | >80 | – | – | – | – | – | – | – | – | – | IC50 at 24 h ([2]; H1975 cells, CCK-8, 24 hours treatment, read-out: Cytotoxicity (IC50) against H1975): > 80 µM; MIC ([3]; ATCC13813, 24 h): > 80 µg/mL; MIC ([4]; ATCC25922, 24 h): > 80 µg/mL; MIC (Micrococcus luteus [5]; 24 h): > 80 µg/mL; MIC (Bacillus subtilis BS01; BS01, 24 h): 80 µg/mL (≈ 159 µM); MIC ([6]; ATCC6538, 24 h): > 80 µg/mL; MIC (S. aureus MRSA; 24 h): > 80 µg/mL; MIC ([7]; ATCC9027, 24 h): > 80 µg/mL; MIC (S. iniae; 24 h): > 80 µg/mL; IC50 at 24 h ([9]; HepG-2 cells, CCK-8, 24 hours treatment, read-out: Cytotoxicity (IC50) against HepG-2): > 80 µM
CS[C@@]12C[C@H]3[C@@H]([C@@H](O)C=C[C@@H]3O)N1C(=O)[C@]1(SC)C[C@H]3[C@@H]([C@@H](O)C=C[C@@H]3O)N1C2=O [Penicibrocazine C] | – | – | – | – | – | – | – | – | – | – | – | MIC against Micrococcus luteus (Micrococcus luteus [1]): 0.25 µg/mL (≈ 0.55 µM)
O=C1N2[C@H]3C(=CC=C[C@@H]3O)C[C@]23SS[C@]12C[C@H]1[C@@H]([C@@H](O)C=C[C@@H]1O)N2C3=O [brocazine G] | – | – | – | – | – | – | – | – | – | – | – | IC50 [10]: 0.66 µM; MIC against Staphylococcus aureus (Staphylococcus aureus): 0.25 µg/mL (≈ 0.615 µM)
CSC12CC3=COC=CC(OC(C)=O)C3N1C(=O)C1(SC)CC34OC3C3OC3C(OC(C)=O)C4N1C2=O (stereo not drawn) [Compound 3, Lecanicillium C] | > 80 | >80 | > 80 | > 80 | > 80 | > 80 | > 80 | > 80 | > 80 | > 80 | > 80 | –
CSC12CC3=COC=CC(O)C3N1C(=O)C1(Cc3ccccc3O1)NC2=O (stereo not drawn) [Compound 2, Lecanicillium B] | > 80 | >80 | > 80 | > 80 | 60 (≈ 155 µM) | 80 (≈ 207 µM) | > 80 | > 80 | > 80 | 70 (≈ 181 µM) | > 80 | –
